From the supplement of paper PMC10307832

Columns and labels:
Experiment in all cases: relative viability (nuclei count vs DMSO), 5 days (fraction); higher = more cells survive
[1] = compound: Nc1ncn([C@H]2C[C@H](O)[C@@H](CO)O2)c(=O)n1 [Decitabine] + C[C@@H](Oc1cc(-c2cnn(C3CCNCC3)c2)cnc1N)c1c(Cl)ccc(F)c1Cl [Crizotinib] (partner 1 µM)
Method in brief: (§1)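 Relative viability equals treated-well nuclei counts divided by vehicle-well nuclei counts. Counts came from 4× images of lung cancer cell lines grown in 1536-well plates for 5 days after pin-tool dosing on the day after seeding. Dosing used one drug alone or a fixed anchor-drug dose plus five library-drug doses (not always all listed) in √10 steps, and values are medians of duplicate plates.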

[2] = compound: O=C(C[C@H]1NCCC[C@@H]1O)Cn1cnc2cc(Br)c(Cl)cc2c1=O (racemic) [Halofuginone] + COc1cc2c(Oc3ccc(NC(=O)C4(C(=O)Nc5ccc(F)cc5)CC4)cc3F)ccnc2cc1OCCCN1CCOCC1 [Foretinib] (partner 0.25 µM)
Method in brief: as §1

[3] = compound: O=C(C[C@H]1NCCC[C@@H]1O)Cn1cnc2cc(Br)c(Cl)cc2c1=O (racemic) [Halofuginone] + N=C(N)NC(=N)NCCc1ccccc1 [Phenformin] (partner 250 µM)
Method in brief: as §1

[4] = compound: O=C(C[C@H]1NCCC[C@@H]1O)Cn1cnc2cc(Br)c(Cl)cc2c1=O (racemic) [Halofuginone] + Cc1nc(Nc2ncc(C(=O)Nc3c(C)cccc3Cl)s2)cc(N2CCN(CCO)CC2)n1 [Dasatinib] (partner 0.075 µM)
Method in brief: as §1

Cell Line | relative viability ([1]; first compound 0.04 µM) | relative viability ([1]; first compound 0.1265 µM) | relative viability ([1]; first compound 0.4 µM) | relative viability ([1]; first compound 1.265 µM) | relative viability ([1]; first compound 4 µM) | relative viability ([2]; first compound 0.001 µM) | relative viability ([2]; first compound 0.003162 µM) | relative viability ([2]; first compound 0.01 µM) | relative viability ([2]; first compound 0.03162 µM) | relative viability ([2]; first compound 0.1 µM) | relative viability ([3]; first compound 0.001 µM) | relative viability ([3]; first compound 0.003162 µM) | relative viability ([3]; first compound 0.01 µM) | relative viability ([3]; first compound 0.03162 µM) | relative viability ([3]; first compound 0.1 µM) | relative viability ([4]; first compound 0.001 µM) | relative viability ([4]; first compound 0.003162 µM) | relative viability ([4]; first compound 0.01 µM) | relative viability ([4]; first compound 0.03162 µM) | relative viability ([4]; first compound 0.1 µM)
201T | 1.02 | 1 | 1.15 | 0.965 | 0.914 | 1.09 | 1.09 | 0.931 | 0.558 | 0.193 | 0.459 | 0.472 | 0.442 | 0.457 | 0.348 | 0.595 | 0.586 | 0.572 | 0.543 | 0.306
A549 | 0.498 | 0.658 | 0.348 | 0.13 | 0.102 | 1.06 | 0.921 | 0.925 | 0.507 | 0.112 | 0.186 | 0.215 | 0.148 | 0.163 | 0.109 |  |  |  |  | 
A-427 | 0.489 | 0.403 | 0.316 | 0.205 | 0.165 | 0.979 | 1.03 | 1.02 | 1.06 | 0.915 | 0.304 | 0.346 | 0.326 | 0.293 | 0.272 | 0.744 | 0.773 | 0.678 | 0.723 | 0.643
ABC-1 | 0.771 | 0.907 | 0.627 | 0.728 | 0.542 | 1.28 | 1.38 | 1.07 | 1.13 | 0.9 | 0.27 | 0.223 | 0.24 | 0.234 | 0.209 | 0.586 | 0.626 | 0.453 | 0.476 | 0.487
BEN | 0.914 | 0.786 | 0.623 | 0.469 | 0.453 | 0.71 | 0.815 | 0.889 | 0.646 | 0.242 | 0.263 | 0.263 | 0.26 | 0.285 | 0.237 | 0.345 | 0.318 | 0.331 | 0.36 | 0.229
CAL-12T | 0.612 | 0.664 | 0.174 | 0.416 | 0.222 | 1.33 | 1.21 | 1.08 | 1.41 | 0.898 | 0.582 | 0.592 | 0.555 | 0.603 | 0.509 | 0.685 | 0.396 | 0.377 | 0.282 | 0.154
COR-L23 | 0.332 | 0.33 | 0.332 | 0.22 | 0.184 | 1 | 0.996 | 1.02 | 0.904 | 0.353 | 0.489 | 0.431 | 0.482 | 0.415 | 0.303 | 0.617 | 0.481 | 0.535 | 0.311 | 0.083
COR-L 105 | 0.596 | 0.633 | 0.573 | 0.356 | 0.319 | 1.07 | 0.894 | 1.31 | 1.09 | 0.846 | 0.492 | 0.467 | 0.488 | 0.516 | 0.381 | 0.387 | 0.353 | 0.316 | 0.257 | 0.234
Calu-6 | 0.495 | 0.478 | 0.283 | 0.227 | 0.224 | 0.961 | 0.95 | 0.925 | 0.472 | 0.109 |  |  |  |  |  |  |  |  |  | 
ChaGo-K-1 | 0.962 | 0.857 | 0.631 | 0.6 | 0.605 | 0.999 | 0.915 | 0.93 | 0.881 | 0.786 | 0.473 | 0.486 | 0.573 | 0.392 | 0.462 | 0.502 | 0.602 | 0.607 | 0.622 | 0.6
EBC-1 | 0.146 | 0.176 | 0.193 | 0.144 | 0.148 | 0.106 | 0.112 | 0.108 | 0.104 | 0.104 |  |  |  |  |  |  |  |  |  | 
EKVX | 0.828 | 0.73 | 0.503 | 0.396 | 0.364 | 0.806 | 0.794 | 0.947 | 0.794 | 0.293 | 0.236 | 0.241 | 0.232 | 0.226 | 0.199 | 0.522 | 0.445 | 0.662 | 0.605 | 0.418
EMC-BAC-2 | 0.64 | 0.656 | 0.454 | 0.483 | 0.402 | 1.06 | 0.972 | 0.986 | 0.78 | 0.423 | 0.615 | 0.546 | 0.503 | 0.521 | 0.338 | 0.362 | 0.343 | 0.301 | 0.298 | 0.163
EPLC-272H | 0.587 | 0.587 |  | 0.414 | 0.402 | 0.792 | 0.742 | 0.736 | 0.78 | 0.72 | 0.314 | 0.267 | 0.311 | 0.312 | 0.286 | 0.366 | 0.427 | 0.43 | 0.37 | 0.274
H3255 | 0.417 | 0.82 | 0.419 | 0.537 | 0.484 | 0.748 | 0.849 | 0.825 | 1.01 | 0.856 | 0.399 | 0.372 | 0.293 | 0.401 | 0.369 | 0.429 | 0.317 | 0.357 | 0.328 | 0.334
